How the values were obtained:
[1] = Parallel artificial membrane permeability assay - blood brain barrier (PAMPA-BBB); details: for Log Pe: PAMPA-BBB, High permeability LogPe > −5.33, No permeability LogPe < −6.14; for Papp at 18 h, 250 μM: pig, PAMPA, pH 7.5
Procedure: A solution of 1 × PBS (pH 7.5) was initially prepared by the dilution of a commercially available 10 × PBS solution. […] A solution of porcine brain lipid (PBL) (20 mg/mL in dodecane) was prepared, and 4 μL of this solution was used to coat the filters on the bottom of the PAMPA donor plates (Sigma Aldrich #MAIPNTR10). After air drying for 20 min, the donor plate wells were charged with 250 μL of the solutions of the test compounds or the controls. The donor plate was then placed over the acceptor plate (Sigma Aldrich #MATRNPS50), in which wells were previously filled with 1 × PBS (2 % DMSO v/v) solution. The PAMPA sandwich was closed with parafilm and incubated at 25 °C for 18 h in a humidity-saturated atmosphere with orbital agitation. […] The UV spectra (250–400 nm) of each well were acquired on a BioTek Synergy H1 MD plate reader equipped with a monochromator at room temperature.
CA(t) is the concentration of the compounds at the final time of incubation on the acceptor well; CD(0) and CD(t) are the concentration of the compounds at the initial time of incubation and at the final time of incubation on the donor well, respectively.

[2] = Microsomal metabolic stability, human; format: in vitro ADME; details: liver microsomes; for microsomal CLint at 1.1 μM: pH 7.4, 0.5 mg/mL; for half-life at 1.1 μM: pH 7.4, read-out: t1/2 (human)
Procedure: The assay was performed at Jubilant Biosys. Vials containing human or mouse microsomes were collected from the -80 °C freezer and thawed on ice. Then 27.5 μL of the initial microsome solutions (20 mg/mL) were diluted in 971.5 μL of a 67 mM potassium phosphate buffer solution (pH 7.4). The testing compounds were diluted in the buffered microsomal solution to obtain a final concentration of 1.1 μM. Then four different aliquots, each containing 180 μL of the assay solution, representing the samples at T = 0, T = 5, T = 15, and T = 30 min. The samples were pre-incubated at 37 °C for 5 min with gentle shaking, and then 20 μL of a NADPH solution (10 mM) was added to the different solutions of the test compounds. […] An aliquot of the supernatant (200 μL) was collected from each reaction sample and analyzed by LC-MS/MS. The Ln values of the peak area of the compounds to the internal standard over time (min.) were graphed using Excel, and the elimination rates of the compounds (k) were determined from the slopes obtained from the graphs. The k values were used to calculate the compounds half-life using the equation: t1/2=Ln2/k The intrinsic clearance (CLint) of each compound in the presence of mouse and human microsomes was calculated using the equation: […] Verapamil and Ketoconazole were used as controls to evaluate the assay performance. The results are presented as an average of two technical replicates.

[3] = system: PC12-SOD1^G85R YFP cells co-treated with MG132; test: Viability screening against MG132-induced toxicity, CellTiter-Glo; format: cell-based; details: PC12-SOD1^G85R YFP cells co-treated with MG132 and the compounds; read-out: PC12-SOD1^G85R EC50, in vitro viability screening (protection against MG132-induced toxicity)
Procedure: The HepG2 and HEK293 cells were cultured in DMEM media supplemented with 10 % FBS (heat-inactivated), 1 % Pen-strep, and L-glutamine and incubated at 37 °C in humidified air with 5 % CO2 until 85–90 % confluency. The PC12 Tet-Off-SOD1^G85R YFP cells were maintained as described in 4.2. On the day before the experiments, the cells were transferred to white bottom 96 well plates (Greiner cat. 655,083) at a concentration of 50,000 cells/100 μL of media in each well and incubated overnight at 37 °C. Stock solutions of the compounds (30 mM) in DMSO were prepared and then diluted in media to obtain the six final working solutions starting at 30 μM, and serial dilutions were obtained with the lowest concentration at 0.25 μM. The media were removed and fresh media containing the compounds or the vehicle DMSO (0.1 % v/v) were transferred to the plates containing HepG2 and HEK293 cells and the plates were incubated for 24 or 48 h at 37 °C. The PC12 Tet-Off-SOD1^G85R YFP cells compound treatment was performed as described in section 4.2 and using a 9-point 2-fold serial dilution of the compounds starting at 15 μM and the lowest concentration at 0.05 μM. After incubation, the plates were cooled to room temperature and 25 μL of CellTiter-Glo® solution was added to each well. The plates were loaded into a BioTek Synergy H1 MD plate reader and shaken for 2 min, stabilized for 10 min without shaking, and then the luminescence values were read for each well (luminescence integration step 1 ms). Wells containing media with the vehicle DMSO with or without cells were used as controls to represent, respectively, the maximum viability and the lowest viability (background signal) for the cytotoxicity studies with HepG2 and HEK293 cell lines. The viability values for the assay performed with the PC12 Tet-Off-SOD1^G85R YFP cells were normalised for the vehicle (0.1 % DMSO) and (−)-MG-132 alone treatments, which represented respectively the […] viability for the assay. […]

[4] = In vitro cytotoxicity, CellTiter-Glo, HepG2; format: cell-based; details: human, HepG2 cells; for viability at 24 h, 30 μM / viability at 48 h, 30 μM: relative to untreated cells, read-out: Percentage of viable cells observed at 30 μM treatment, HepG2; for EC50 at 24 h / EC50 at 48 h: cytotoxicity
Procedure: (§1) The HepG2 and HEK293 cells were cultured in DMEM media supplemented with 10 % FBS (heat-inactivated), 1 % Pen-strep, and L-glutamine and incubated at 37 °C in humidified air with 5 % CO2 until 85–90 % confluency. The PC12 Tet-Off-SOD1^G85R YFP cells were maintained as described in 4.2. On the day before the experiments, the cells were transferred to white bottom 96 well plates (Greiner cat. 655,083) at a concentration of 50,000 cells/100 μL of media in each well and incubated overnight at 37 °C. Stock solutions of the compounds (30 mM) in DMSO were prepared and then diluted in media to obtain the six final working solutions starting at 30 μM, and serial dilutions were obtained with the lowest concentration at 0.25 μM. The media were removed and fresh media containing the compounds or the vehicle DMSO (0.1 % v/v) were transferred to the plates containing HepG2 and HEK293 cells and the plates were incubated for 24 or 48 h at 37 °C. The PC12 Tet-Off-SOD1^G85R YFP cells compound treatment was performed as described in section 4.2 and using a 9-point 2-fold serial dilution of the compounds starting at 15 μM and the lowest concentration at 0.05 μM. After incubation, the plates were cooled to room temperature and 25 μL of CellTiter-Glo® solution was added to each well. The plates were loaded into a BioTek Synergy H1 MD plate reader and shaken for 2 min, stabilized for 10 min without shaking, and then the luminescence values were read for each well (luminescence integration step 1 ms). Wells containing media with the vehicle DMSO with or without cells were used as controls to represent, respectively, the maximum viability and the lowest viability (background signal) for the cytotoxicity studies with HepG2 and HEK293 cell lines. The viability values for the assay performed with the PC12 Tet-Off-SOD1^G85R YFP cells were normalised for the vehicle (0.1 % DMSO) and (−)-MG-132 alone treatments, which represented respectively the […] viability for the assay.
(§2) The results are presented as an average of three independent experiments, each performed in triplicate, for the cytotoxicity experiments performed with HepG2 and HEK293 cells. The results for the protective screening with the PC12 Tet-Off-SOD1^G85R YFP cells are presented as an average of four replicates.

HepG2 cells = test: In vitro cytotoxicity, CellTiter-Glo, HepG2; format: cell-based; details: cytotoxicity EC50 (HepG2, HEK293) versus PC12-SOD1^G85R EC50
Procedure: as §1, §2

BCRP = biological target: T1, BCRP (Homo sapiens, UniProt Q9UNQ0); test: MDCKII-BCRP bidirectional permeability / efflux assay; format: in vitro ADME; details: for substrate for the BCRP transporter: based on efflux ratio (> 2.0 = substrate); for Papp A→B at 120 min / Papp B→A at 120 min / efflux ratio at 120 min: dog, MDCKII-BCRP, absence of Ko143
T1 construct: host or cells: MDCKII-BCRP (canine MDR1 knockout, transfected with BCRP)
T1 sequence (Q9UNQ0 1-655): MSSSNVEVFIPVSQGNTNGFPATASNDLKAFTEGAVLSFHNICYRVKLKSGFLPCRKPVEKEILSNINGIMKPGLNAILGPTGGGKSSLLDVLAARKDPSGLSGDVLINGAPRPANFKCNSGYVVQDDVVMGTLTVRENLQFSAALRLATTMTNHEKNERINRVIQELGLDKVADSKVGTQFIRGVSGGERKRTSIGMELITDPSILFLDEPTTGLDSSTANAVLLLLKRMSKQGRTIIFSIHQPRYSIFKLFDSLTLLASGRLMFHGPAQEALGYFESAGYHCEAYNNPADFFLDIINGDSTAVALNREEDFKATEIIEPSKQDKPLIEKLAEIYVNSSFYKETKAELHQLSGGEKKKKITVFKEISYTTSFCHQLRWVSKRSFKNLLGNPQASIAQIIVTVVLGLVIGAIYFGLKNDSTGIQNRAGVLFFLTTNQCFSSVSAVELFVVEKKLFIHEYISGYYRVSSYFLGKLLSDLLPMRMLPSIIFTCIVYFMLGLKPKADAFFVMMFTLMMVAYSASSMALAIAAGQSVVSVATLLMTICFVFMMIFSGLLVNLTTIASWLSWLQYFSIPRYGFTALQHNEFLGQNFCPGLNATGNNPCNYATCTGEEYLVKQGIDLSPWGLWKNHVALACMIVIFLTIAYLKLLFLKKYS
Procedure: For each experiment, the apparent permeability (Papp) for each direction and the efflux ratio (ER) were determined by the equations: Papp(cm/s)=(dQ/dt)/A×Co
Where P(B→A) is the apparent permeability of the compounds from the basal to the apical direction and P(A→B) is the apparent permeability from the apical to basal direction. […] The results are presented as an average of two independent experiments.

SMILES | Log Pe [1] | Papp at 18 h, 250 μM [1] [×10⁻⁶ cm/s] | microsomal CLint at 1.1 μM [2] [µL/min/mg] | half-life at 1.1 μM [2] [min] | EC50 [3] [µM] | viability at 24 h, 30 μM [4] [%] | viability at 48 h, 30 μM [4] [%] | EC50 at 24 h [4] [µM] | EC50 at 48 h [4] [µM] | EC50 Fold difference (HepG2 cells) | substrate for the BCRP transporter (BCRP) | Papp A→B at 120 min (BCRP) [×10⁻⁶ cm/s] | Papp B→A at 120 min (BCRP) [×10⁻⁶ cm/s] | efflux ratio at 120 min (BCRP)
O=C1CC(=O)CC(/C=C/c2cc(C(F)(F)F)cc(C(F)(F)F)c2)C1 [Compound 6, (E)-5-(3,5-Bis(trifluoromethyl)styryl)cyclohexane-1,3-dione] | −5.07 | 8.46 ± 0.1 | 25.8 ± 1.6 | 53.9 ± 3.3 | 1.98 ± 0.25 | 91.9 | 94 | > 30 | > 30 | >14 | substrates | 0.66 ± 0.18 | 31.5 ± 2.73 | 47.4
CC(C)(Oc1cc(C(F)(F)F)cc(C(F)(F)F)c1)C1CC(=O)CC(=O)C1 [Compound 20, 5-(2-(3,5-bis(trifluoromethyl)phenoxy)propan-2-yl)cyclohexane-1,3-dione] | −4.94 | 11.5 ± 0.66 | 10.4 ± 3.1 | > 120 | 2.47 ± 0.15 | 96 | 92.3 | > 30 | > 30 | >11 | substrates | 3.62 ± 0.22 | 19.2 ± 0.88 | 5.32

From paper PMC12648443, “Modifications of NU-9, a potent protein aggregation inhibitor. Properties and activity in a cellular model of amyotrophic lateral sclerosis” (Bioorganic chemistry, 2025)
